ChEMBL document CHEMBL3091276, “Design, synthesis and evaluation of 6-(4-((substituted-1H-1,2,3-triazol-4-yl)methyl)piperazin-1-yl)phenanthridine analogues as antimycobacterial agents” (Bioorg Med Chem Lett, 2013)
Converted amounts (≈) assume the structure as drawn.

Columns and labels:
[1] = system: Mycobacterium tuberculosis; assay: Antimycobacterial activity in Mycobacterium tuberculosis H37Rv after 5 days by Alamar Blue assay; format: functional; conditions: 120 h
[2] = system: RAW264.7; assay: Cytotoxicity against mouse RAW264.7 cells by MTT assay; format: cell-based
[3] = Cytotoxicity against mouse RAW264.7 cells at 50 ug/ml by MTT assay relative to control; format: cell-based; conditions: read-out: INH
[4] = Selectivity index, ratio of IC50 for mouse RAW264.7 cells to MIC99 for Mycobacterium tuberculosis H37Rv; format: toxicity; conditions: read-out: Selectivity Index

`c1ccc(Cn2cc(CN3CCN(c4nc5ccccc5c5ccccc45)CC3)nn2)cc1` gave an MIC99 [1] of 50 µg/mL (≈ 115 µM).
`CCc1ccc(-n2cc(CN3CCN(c4nc5ccccc5c5ccccc45)CC3)nn2)cc1` showed an MIC99 [1] of 50 µg/mL (≈ 111 µM).
For `Cc1ccc(-n2cc(CN3CCN(c4nc5ccccc5c5ccccc45)CC3)nn2)c(C)c1`, the MIC99 [1] was 12.5 µg/mL (≈ 27.9 µM).
Compound `c1ccc2c(c1)nc(N1CCN(Cc3cn(-c4ccc5c(c4)OCO5)nn3)CC1)c1ccccc12` has an MIC99 [1] of 50 µg/mL (≈ 108 µM).
`COc1cccc(-n2cc(CN3CCN(c4nc5ccccc5c5ccccc45)CC3)nn2)c1` showed an MIC99 [1] of 50 µg/mL (≈ 111 µM).
Work on `COc1ccc(-n2cc(CN3CCN(c4nc5ccccc5c5ccccc45)CC3)nn2)cc1` yielded an IC50 [2] greater than 125 µg/mL, a cytotoxicity at 50 ug/ml [3] of 19.2% and an MIC99 [1] of 3.12 µg/mL (≈ 6.94 µM). It also gave a selectivity ratio [4] greater than 15.
`Clc1ccc(-n2cc(CN3CCN(c4nc5ccccc5c5ccccc45)CC3)nn2)cc1Cl` showed an MIC99 [1] of 50 µg/mL (≈ 102 µM).
Compound `Clc1ccc(-n2cc(CN3CCN(c4nc5ccccc5c5ccccc45)CC3)nn2)cc1` has an MIC99 [1] of 25 µg/mL (≈ 54.9 µM).
In the case of `Clc1ccccc1-n1cc(CN2CCN(c3nc4ccccc4c4ccccc34)CC2)nn1`, the MIC99 [1] was 12.5 µg/mL (≈ 27.5 µM).
Work on `Clc1cccc(-n2cc(CN3CCN(c4nc5ccccc5c5ccccc45)CC3)nn2)c1` yielded an IC50 [2] greater than 150 µg/mL, a cytotoxicity at 50 ug/ml [3] of 12.6% and an MIC99 [1] of 3.12 µg/mL (≈ 6.87 µM). It also gave a selectivity ratio [4] greater than 20.
In the case of `Brc1ccccc1-n1cc(CN2CCN(c3nc4ccccc4c4ccccc34)CC2)nn1`, the MIC99 [1] was 50 µg/mL (≈ 100 µM).
`Brc1ccc(-n2cc(CN3CCN(c4nc5ccccc5c5ccccc45)CC3)nn2)cc1` showed an MIC99 [1] of 12.5 µg/mL (≈ 25 µM).
Compound `Fc1ccc(-n2cc(CN3CCN(c4nc5ccccc5c5ccccc45)CC3)nn2)cc1Cl` has an MIC99 [1] of 50 µg/mL (≈ 106 µM).
Compound `Fc1ccc(-n2cc(CN3CCN(c4nc5ccccc5c5ccccc45)CC3)nn2)cc1F` has an MIC99 [1] of 25 µg/mL (≈ 54.8 µM).
With `Fc1ccc(-n2cc(CN3CCN(c4nc5ccccc5c5ccccc45)CC3)nn2)cc1` the MIC99 [1] was 25 µg/mL (≈ 57 µM).
For `FC(F)(F)c1cccc(-n2cc(CN3CCN(c4nc5ccccc5c5ccccc45)CC3)nn2)c1`, the MIC99 [1] was 12.5 µg/mL (≈ 25.6 µM).
In the case of `O=[N+]([O-])c1cccc(-n2cc(CN3CCN(c4nc5ccccc5c5ccccc45)CC3)nn2)c1`, the MIC99 [1] was 6.25 µg/mL (≈ 13.4 µM).
Work on `O=S(=O)(c1ccccc1)n1cc(CN2CCN(c3nc4ccccc4c4ccccc34)CC2)nn1` yielded an IC50 [2] greater than 425 µg/mL, a cytotoxicity at 50 ug/ml [3] of 5.82% and an MIC99 [1] of 1.56 µg/mL (≈ 3.22 µM). It also gave a selectivity ratio [4] greater than 125.
Work on `Cc1ccc(S(=O)(=O)n2cc(CN3CCN(c4nc5ccccc5c5ccccc45)CC3)nn2)cc1` yielded an MIC99 [1] of 12.5 µg/mL (≈ 25.1 µM).
With `NNC(=O)c1ccncc1` [ISONIAZID] the MIC99 [1] was 0.36 µg/mL (≈ 2.63 µM).
For `CO[C@H]1/C=C/O[C@@]2(C)Oc3c(C)c(O)c4c(O)c(c(/C=N/N5CCN(C)CC5)c(O)c4c3C2=O)NC(=O)/C(C)=C\C=C\[C@H](C)[C@H](O)[C@@H](C)[C@@H](O)[C@@H](C)[C@H](OC(C)=O)[C@@H]1C` [RIFAMPIN], the MIC99 [1] was 0.02 µg/mL (≈ 0.0243 µM).
